This note sets out measurements from patent publication US8916681B2, “Compound, use and method” (Medical Research Council, priority 2007, dated 2014).

“Also recorded” adds a separate entry of the source. Non-standard residues stand in square brackets, D forms with d. Residues, ends and D or L forms follow the SMILES beside them.

Test [1] in a line: Fetal weight after kisspeptin treatment (FIG. 6). Format: in vivo.
A further test relates to GnRH release. The test is described as follows: GnRH release in the stalk-median eminence, microdialysis. The settings on record: pubertal female rhesus monkeys; 10 nM infused over 30 min through microdialysis probe. Format: in vivo, rhesus monkey. The procedure: Four female rhesus monkeys, born and raised in the Wisconsin National Primate Research Center, were used in this study. They were housed in pairs (cages 172×86×86 cm) in rooms with 12 h of light 12 h of darkness and controlled temperature (22° C.). The animals were fed a standard diet of Harlan 20% Protein Primate Diet twice each day, supplemented with fresh fruit several times per week. Water was available ad libitum. The protocol for this study was reviewed and approved by the Animal Care and Use Committee, University of Wisconsin, and all experiments were conducted under the guidelines established by the NIH and USDA.
The effects of peptide 234 on GnRH release were examined using the microdialysis method. This method allows collection of dialysate samples for GnRH measurement while peptide 234 was infused through the semi-permeable membrane, as described previously (25)′(24). Peptide 234 dissolved in CNS perfusion fluid was infused in the stalk median eminence region through the microdialysis probe for 30 min while dialysates were continuously collected. […]
On the day of experiment the monkey was placed in the stereotaxic apparatus under ketamine (15 mg/kg b.w.) and medetomidine (0.03-0.05 mg/kg b.w.) anesthesia. […] The x, y, and z coordinates for the S-ME were calculated using ventriculographs and the final radiographs taken during cranial pedestal implantation surgery. […]

The test system of the next test is serum LH. The test is described as follows: Serum LH in orchidectomized (castrated) male rats, icv injections. Format: in vivo, rat. The settings on record: 1 nmol at 0, 60 and 120 min; significant at 240 min. As for the experimental part:
In addition, repeated icy injection of the peptide 234 was also conducted in orchidectomized (ORX) rats. The animals were subjected to bilateral ORX via the scrotal route, and after 1-wk after surgery were subjected to cannula implantation as described above. The test involved three intracerebral injections of the antagonist (1 nmol; at 0-, 60- and 120-min of the procedure) and blood sampling by jugular venipuncture in basal conditions (0-min) and 15-min after each icy injection. Additional blood samples were obtained at 180- and 240-min after central administration of peptide 234. For each time-point, 10-12 samples were taken per group.
Serum LH levels were measured in a volume of 50 μl using a double-antibody method and radioimmunoassay kits supplied by the NIH (Dr. AF Parlow, NIDDK). […] For each hormone, all samples were measured in the same assay. […]
Hormonal determinations were conducted in duplicate, with a minimal total number of 10 samples per group. When appropriate, in addition to individual time-point measurements, integrated LH secretory responses were calculated as the area under the curve (AUC), following the trapezoidal rule. […] Results were analyzed for statistically significant differences using Student t-test or ANOVA followed by Student-Newman-Keuls multiple range test (SigmaStat 2.0). […]

A further test deals with T1, GnRH receptors (Homo sapiens, UniProt P30968).
T1 sequence (P30968 1-328): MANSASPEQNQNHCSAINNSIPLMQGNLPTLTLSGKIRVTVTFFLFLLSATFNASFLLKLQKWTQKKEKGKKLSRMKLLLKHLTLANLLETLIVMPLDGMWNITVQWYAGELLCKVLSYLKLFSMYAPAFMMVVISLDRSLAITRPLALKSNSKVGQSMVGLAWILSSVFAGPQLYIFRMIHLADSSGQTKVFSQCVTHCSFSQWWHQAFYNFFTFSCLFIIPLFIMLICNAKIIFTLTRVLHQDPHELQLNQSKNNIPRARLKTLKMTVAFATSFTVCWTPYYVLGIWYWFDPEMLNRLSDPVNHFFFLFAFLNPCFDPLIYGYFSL
Kind of test: Binding to GnRH receptors (data not shown).

The target of another test is LH receptors (Homo sapiens, UniProt P22888). The test is described as follows: Binding to LH receptors (data not shown).
LH receptors, sequence (P22888 27-699): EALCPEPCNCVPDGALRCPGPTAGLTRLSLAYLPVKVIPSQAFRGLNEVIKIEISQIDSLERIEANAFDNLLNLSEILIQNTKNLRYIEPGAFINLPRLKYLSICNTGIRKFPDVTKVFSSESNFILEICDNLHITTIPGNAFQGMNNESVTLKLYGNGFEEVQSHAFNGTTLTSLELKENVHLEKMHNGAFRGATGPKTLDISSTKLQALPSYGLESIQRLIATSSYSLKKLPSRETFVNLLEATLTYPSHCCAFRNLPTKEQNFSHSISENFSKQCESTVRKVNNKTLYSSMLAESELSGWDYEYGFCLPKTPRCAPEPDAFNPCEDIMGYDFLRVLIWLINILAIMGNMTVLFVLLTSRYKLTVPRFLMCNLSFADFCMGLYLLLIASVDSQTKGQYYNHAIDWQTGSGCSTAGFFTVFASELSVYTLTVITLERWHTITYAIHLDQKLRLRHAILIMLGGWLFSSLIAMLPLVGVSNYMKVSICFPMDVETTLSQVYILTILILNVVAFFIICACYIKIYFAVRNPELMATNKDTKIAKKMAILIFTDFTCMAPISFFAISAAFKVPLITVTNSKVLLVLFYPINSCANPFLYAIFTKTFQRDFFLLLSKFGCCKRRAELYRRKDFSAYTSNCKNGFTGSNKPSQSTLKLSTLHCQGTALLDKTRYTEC
The next test concerns the target GPR54 (Homo sapiens, UniProt Q969F8). The test is described as follows: Inositol phosphate (IP) stimulation assay in CHO/gpr-54 cells. To be noted: CHO cells stably-expressing human gpr-54. Further details: G. Vassart, Univ; Brussels. Format: cell-based.

GPR54, sequence (Q969F8 whole entry): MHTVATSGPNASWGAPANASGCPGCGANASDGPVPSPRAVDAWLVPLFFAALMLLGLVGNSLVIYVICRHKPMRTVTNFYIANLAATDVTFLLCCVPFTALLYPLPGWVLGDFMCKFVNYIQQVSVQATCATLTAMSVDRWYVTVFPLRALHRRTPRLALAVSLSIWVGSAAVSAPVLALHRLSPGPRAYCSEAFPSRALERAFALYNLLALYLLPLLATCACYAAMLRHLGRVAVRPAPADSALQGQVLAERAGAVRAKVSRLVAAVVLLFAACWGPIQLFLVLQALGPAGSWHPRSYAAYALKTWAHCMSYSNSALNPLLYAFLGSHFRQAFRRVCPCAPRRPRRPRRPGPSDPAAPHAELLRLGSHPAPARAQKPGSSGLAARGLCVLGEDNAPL
Experimental for GPR54: Inositol-3-phoshate Stimulation Assay—Cell monolayers had 0.5 mls HEPES modified DMEM supplemented with 1% Penicillin/Streptomycin for 30 mins at 37° C. to block IP3 breakdown. Cells were then stimulated with 0.5 mls Kisspeptin-10 and analogues (10 pM-1 uM) diluted at 1:1000 in the above media for 1 hr at 37° C., then in 10 mM Formic acid at 4° C. for 1 hr to lyse cells. Lysate was then transferred to plastic tubes containing 0.5 mls Dowex resin to bind the radioactive IP3 and the resin was then washed with 1 ml H2O. The resin was then washed with 60 mM NH4 formate/5 mM Sodium tetraborate followed by 1M NH4 formate/0.1M Formic acid to release the bound radiation. Then 800 μls of the radioactive solution were transferred to scintillation vials containing 2.5 mls scintillation fluid and radioactivity counted on a Beta counter for 60 seconds.
IP stimulation refers to intrinsic residual agonist activity where estimateable.
The cells were maintained in Dulbecco's modified Eagle's medium (DMEM; Sigma) supplemented with 10% fetal calf serum, 2% glutamine and 1% penicillin (10,000 units/ml)/streptomycin (10,000 mg/ml) at 37° C. in a humidified 5% CO2 atmosphere.
Prior to stimulation CHO/gpr-54 cells were washed twice with Dulbecco's phosphate-buffered saline (DPBS; without calcium or magnesium) then incubated overnight with ^3H-myoinositol, labeled HEPES-modified DMEM with 1% penicillin/streptomycin at 37° C. HEPES-modified DMEM supplemented with 1% penicillin/streptomycin and 1% lithium chloride (0.5 ml) was added to cells for 30 min at 37° C. to block IP hydrolysis. Cells were then stimulated with 0.5 ml kisspeptin-10 and analogues (10 pM-1 μM) diluted at 1:100 in the above media for 1 h at 37° C., then with 10 mM formic acid at 4° C. for 1 h to lyse cells. Lysates were transferred to plastic tubes containing 0.5 ml Dowex resin to bind the radioactive IP and the resin was then washed with 1 ml water. The resin was next washed with 60 mM ammonium formate/5 mM sodium tetraborate. followed by 1M ammonium formate/0.1M formic acid to release the bound radiation. Then 800 μl of the radioactive solution were transferred to scintillation vials containing 2.5 ml scintillation fluid and radioactivity counted on a Beta counter for 60 sec. Experiments were repeated 3-5 times. IP production was plotted as mean values±SEM and analyzed by using a Student's t-Test (p≧0.05).

On to `CC(C)C[C@H](NC(=O)CNC(=O)[C@H](Cc1ccccc1)NC(=O)[C@H](CO)NC(=O)[C@H](CC(N)=O)NC(=O)[C@H](Cc1c[nH]c2ccccc12)NC(=O)[C@H](CC(N)=O)NC(=O)[C@@H](N)Cc1ccc(O)cc1)C(=O)N[C@@H](CCCNC(=N)N)C(=O)N[C@@H](Cc1ccccc1)C(N)=O` [Kiss, reference compound], for which, in test [1], the fetal weight entry is “decreased”.
As for `CC(=O)N[C@H](C)C(=O)N[C@@H](CC(N)=O)C(=O)N[C@@H](Cc1c[nH]c2ccccc12)C(=O)N[C@@H](CC(N)=O)C(=O)NCC(=O)N[C@@H](Cc1ccccc1)C(=O)NCC(=O)N[C@H](Cc1c[nH]c2ccccc12)C(=O)N[C@@H](CCCNC(=N)N)C(=O)N[C@@H](Cc1ccccc1)C(N)=O` [Peptide 234] (Ac-[dA]NWNGFG[dW]RF-NH2), in the test with GnRH release, the “GnRH pulses and mean GnRH levels” value is “suppressed”. The “serum LH levels in castrated males” value in the test with serum LH is “inhibited; also recorded: tended to reduce; also recorded: blocked the increase in LH”. Also, the “binding to GnRH receptors” value at GnRH receptors was “did not bind”. Besides, on LH receptors, the “binding to LH receptors” value was “did not bind”. Also, the “stimulation of IP by the peptide alone” value on GPR54 is recorded as “little or no stimulation; also recorded: no intrinsic IP stimulation”.
